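Compound exposure: 48 hours, 5 concentrations, 96-well plates. Definition used: TGI = concentration required for complete inhibition of growth.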
Tests used:
Test in all cases: growth of human tumour cells (NCI), 48 h
[1] = system: COLO 205 colon
[2] = system: HCT-15 colon
[3] = system: HT29 colon
[4] = system: U251 CNS
[5] = system: SR leukemia
[6] = system: T-47D breast
[7] = system: 786-0 renal
[8] = system: RXF 393 renal
[9] = system: HOP-92 NSCLC
[10] = system: UACC-62 melanoma
[11] = system: OVCAR-4 ovarian
[12] = system: SK-OV-3 ovarian
[13] = system: MDA-MB-435
[14] = system: SK-MEL-2 melanoma
[15] = system: OVCAR-8 ovarian
[16] = system: NCI-H23 lung
[17] = system: OVCAR-3 ovarian
[18] = system: SNB-75 CNS
[19] = system: EKVX NSCLC
[20] = system: MCF7 breast

SMILES	TGI [1]	TGI [2]	TGI [3]	TGI [4]	TGI [5]	TGI [6]	TGI [7]	TGI [8]	TGI [9]	TGI [10]	TGI [11]	TGI [12]	TGI [13]	TGI [14]	TGI [15]	TGI [16]	TGI [17]	TGI [18]	TGI [19]	TGI [20]
CCC(C#N)N(Cc1cccc(CN(C(C)=O)C(C#N)CC)c1)C(C)=O (stereo not given)	> 100 µM	> 100 µM	> 100 µM	> 100 µM	> 100 µM	> 100 µM	> 100 µM	> 100 µM	> 100 µM	> 100 µM	> 100 µM	> 100 µM	> 100 µM	> 100 µM	> 100 µM	> 100 µM	> 100 µM	> 100 µM	> 100 µM	> 100 µM
CC(C)(C)[Si](C)(C)OCC1OC(n2ccc(=O)[nH]c2=O)C(O[Si](C)(C)C(C)(C)C)/C1=N/O (stereo not given)	5.69 µM	12.1 µM	9.82 µM	23.4 µM	7.28 µM	24.2 µM	8.23 µM	23.3 µM	8.95 µM	24.8 µM	17.8 µM	26 µM	9.95 µM	9.48 µM	13.9 µM	14.8 µM	> 100 µM	46.1 µM	16.1 µM	27.7 µM
CC(=O)C1=CC=C/C1=N\Nc1ccccc1	22.9 µM	19.2 µM	11.5 µM	9.36 µM	4.95 µM	18.3 µM	15.4 µM	34.5 µM	27.3 µM	28.7 µM	20.1 µM	30.7 µM	27.4 µM	27.7 µM	64.4 µM	26.6 µM	9.57 µM	24.6 µM	23 µM	5.68 µM
OC1(c2ccc(Cl)cc2)c2ccccc2C2=Nc3ccccc3CN21 (stereo not given)	> 100 µM	> 100 µM	33.8 µM	> 100 µM	> 84.8 µM	> 100 µM	25.8 µM	55.4 µM	> 100 µM	> 100 µM	50.6 µM	> 100 µM	> 100 µM	> 89.6 µM	38.2 µM	> 100 µM	9.77 µM	44 µM	> 81.6 µM	> 87.7 µM
Cc1ccc(S(=O)/C=C(\NC(=O)OCc2ccccc2)C(F)(F)F)cc1 (stereo not given)	> 100 µM	> 100 µM	> 100 µM	55.2 µM	> 100 µM	> 100 µM	> 100 µM	> 100 µM	> 100 µM	> 100 µM	> 100 µM	> 100 µM	> 100 µM	> 100 µM	> 100 µM	> 100 µM	> 100 µM	91.4 µM	> 100 µM	> 100 µM
CCOC(=O)C1(C(=O)OCC)C[C@H]2CON=C2[C@@H]1c1ccc(C(F)(F)F)cc1	> 100 µM	> 100 µM	> 100 µM	> 100 µM	> 100 µM	94.3 µM	> 100 µM	> 100 µM	> 100 µM	> 100 µM	61.4 µM	> 100 µM	> 100 µM	> 100 µM	> 100 µM	> 100 µM	> 100 µM	> 100 µM	96.6 µM	> 100 µM
CC1(c2cccc(C3CCC4(C=CC3=O)OCCO4)c2)OCCO1 (stereo not given)	18.6 µM	14.7 µM	25.8 µM	33.8 µM	12.5 µM	23.5 µM	11 µM	11.5 µM	17.8 µM	18.1 µM	18.1 µM	> 67.5 µM	26.1 µM	27.4 µM	30.9 µM	24 µM	13 µM	30.3 µM	37.5 µM	25.9 µM
COc1ccccc1NC(=S)N/N=C(/c1ccccc1)c1ccccn1	0.59 µM	20.3 µM	21 µM	14.9 µM	1.34 µM	27.2 µM	18.7 µM	13.9 µM	15.6 µM	9.23 µM	19.3 µM	13.8 µM	20 µM	21.7 µM	10.5 µM	24.3 µM	16.5 µM	24.7 µM	5.46 µM	3.62 µM
COc1cc(O)c(C(=O)/C=C/c2ccc(O)cc2)cc1Oc1ccc(C(=O)/C=C/c2ccc(O)cc2)c(O)c1	3.58 µM	3.68 µM	2.66 µM	4.97 µM	> 100 µM	8.86 µM	5.73 µM	6.1 µM	24.9 µM	4.52 µM	8.37 µM	9.15 µM	11.8 µM	14.7 µM	7.97 µM	8.88 µM	8.14 µM	7.5 µM	5.68 µM	13.5 µM
